From patent US8163935B2, “Fused heterocyclic compounds” (Takeda Pharmaceutical Company Limited, priority 2005, dated 2012)
Counter-ions that a name gives are not always drawn.

melting point [°C] | Compound
288 to 289 | COc1cc(Cl)cc(C)c1Nc1nc2cccc(-c3c(OC)cccc3OC)c2n1C (as salt: trifluoroacetic acid salt) [Example 71, N-(4-chloro-2-methoxy-6-methylphenyl)-7-(2,6-dimethoxyphenyl)-1-methyl-1H-benzimidazol-2-amine Trifluoroacetic acid salt]
267 to 270 | CCCC(O)(CCC)c1cccc2nc(Nc3c(C)cc(C)cc3C)n(CCO)c12 [Example 73, 4-[1-(2-Hydroxyethyl)-2-(mesitylamino)-1H-benzimidazol-7-yl]heptan-4-ol]
147 to 149 | CCC(CC)c1ccc(Cl)c2nc(Nc3c(Cl)cc(OC(F)(F)F)cc3Cl)n(C)c12 [Example 79, 4-Chloro-N-[2,6-dichloro-4-(trifluoromethoxy)phenyl]-7-(1-ethylpropyl)-1-methyl-1H-benzimidazol-2-amine]
130 to 132 | CCC(CC)c1ccc(Cl)c2nc(Nc3ccc(Cl)cc3Cl)n(C)c12 [Example 80, 4-Chloro-N-(2,4-dichlorophenyl)-7-(1-ethylpropyl)-1-methyl-1H-benzimidazol-2-amine]
126 to 128 | CCC(CC)c1ccc(Cl)c2nc(Nc3ccc(Cl)cc3OC(F)(F)F)n(C)c12 [Example 81, 4-Chloro-N-[4-chloro-2-(trifluoromethoxy)phenyl]-7-(1-ethylpropyl)-1-methyl-1H-benzimidazol-2-amine]
247 to 249 | CCC(CC)c1ccc(Cl)c2nc(Nc3c(C)cc(Br)cc3C)n(C)c12 [Example 82, N-(4-Bromo-2,6-dimethylphenyl)-4-chloro-7-(1-ethylpropyl)-1-methyl-1H-benzimidazol-2-amine]
247 to 249 | CCC(CC)c1ccc(Cl)c2nc(Nc3c(C)cc(Cl)cc3C)n(C)c12 [Example 83, 4-Chloro-N-(4-chloro-2,6-dimethylphenyl)-7-(1-ethylpropyl)-1-methyl-1H-benzimidazol-2-amine]
127 to 129 | CCC(CC)c1ccc(Cl)c2nc(Nc3ccc(Br)cc3Cl)n(C)c12 [Example 85, N-(4-Bromo-2-chlorophenyl)-4-chloro-7-(1-ethylpropyl)-1-methyl-1H-benzimidazol-2-amine]
174 to 176 | CCC(CC)c1ccc(Cl)c2nc(Nc3ccc(C)cc3Br)n(C)c12 [Example 86, N-(2-Bromo-4-methylphenyl)-4-chloro-7-(1-ethylpropyl)-1-methyl-1H-benzimidazol-2-amine]
122 to 123 | CCC(CC)c1ccc(Cl)c2nc(Nc3ccc(OC(F)(F)F)cc3Cl)n(C)c12 [Example 87, 4-Chloro-N-[2-chloro-4-(trifluoromethoxy)phenyl]-7-(1-ethylpropyl)-1-methyl-1H-benzimidazol-2-amine]
224 to 226 | CCC(CC)c1ccc(Cl)c2nc(Nc3cnc(N(C)C)cc3C)n(C)c12 [Example 88, N^5-[4-Chloro-7-(1-ethylpropyl)-1-methyl-1H-benzimidazol-2-yl]-N^2,N^2,4-trimethylpyridine-2,5-diamine]
210 to 211 | CCCC(CCC)c1ccc(Cl)c2nc(Nc3c(C)cc(Br)cc3OC)n(C)c12 [Example 89, N-(4-Bromo-2-methoxy-6-methylphenyl)-4-chloro-1-methyl-7-(1-propylbutyl)-1H-benzimidazol-2-amine]
146 to 148 | CCCC(CCC)c1ccc(Cl)c2nc(Nc3ccc(Cl)cc3Cl)n(C)c12 [Example 91, 4-Chloro-N-(2,4-dichlorophenyl)-1-methyl-7-(1-propylbutyl)-1H-benzimidazol-2-amine]
145 to 147 | CCCC(CCC)c1ccc(Cl)c2nc(Nc3ccc(Cl)cc3Br)n(C)c12 [Example 92, N-(2-Bromo-4-chlorophenyl)-4-chloro-1-methyl-7-(1-propylbutyl)-1H-benzimidazol-2-amine]
145 to 147 | CCCC(CCC)c1ccc(Cl)c2nc(Nc3ccc(Br)cc3Cl)n(C)c12 [Example 93, N-(4-Bromo-2-chlorophenyl)-4-chloro-1-methyl-7-(1-propylbutyl)-1H-benzimidazol-2-amine]
130 to 132 | CCCC(CCC)c1ccc(Cl)c2nc(Nc3ccc(Cl)cc3OC(F)(F)F)n(C)c12 [Example 94, 4-Chloro-N-[4-chloro-2-(trifluoromethoxy)phenyl]-1-methyl-7-(1-propylbutyl)-1H-benzimidazol-2-amine]
128 to 129 | CCC(CC)c1ccc(Cl)c2nc(Nc3ccc(C(F)(F)F)cc3Cl)n(C)c12 [Example 95, 4-Chloro-N-[2-chloro-4-(trifluoromethyl)phenyl]-7-(1-ethylpropyl)-1-methyl-1H-benzimidazol-2-amine]
198 to 199 | CCC(CC)c1ccc(Br)c2nc(Nc3c(C)cc(Cl)cc3OC)n(C)c12 [Example 96, 4-Bromo-N-(4-chloro-2-methoxy-6-methylphenyl)-7-(1-ethylpropyl)-1-methyl-1H-benzimidazol-2-amine]

melting point [°C] | Compound
87 to 89 | CCC(CC)c1ccc(Cl)c2nc(Oc3ccc(Cl)cc3Cl)n(C)c12 [Example 98, 4-Chloro-2-(2,4-dichlorophenoxy)-7-(1-ethylpropyl)-1-methyl-1H-benzimidazole]
137 to 139 | CCC(CC)c1ccc(Cl)c2nc(Oc3c(C)cc(C)cc3C)n(C)c12 [Example 99, 4-Chloro-7-(1-ethylpropyl)-2-(mesityloxy)-1-methyl-1H-benzimidazole]
205 to 207 | CCC(CC)c1ccc(Cl)c2nc(Nc3c(C)cc(Cl)cc3OC)n(CC(=O)OC(C)C)c12 [Example 102, Isopropyl[4-chloro-2-[(4-chloro-2-methoxy-6-methylphenyl)amino]-7-(1-ethylpropyl)-1H-benzimidazol-1-yl]acetate]
249 to 250 | COc1cc(Cl)cc(C)c1Nc1nc2c(Cl)ccc(C(=O)C(C)(C)C)c2n1C [Example 105, 1-{4-Chloro-2-[(4-chloro-2-methoxy-6-methylphenyl)amino]-1-methyl-1H-benzimidazol-7-yl}-2,2-dimethylpropan-1-one]
246 to 248 | COc1cc(Cl)cc(C)c1Nc1nc2c(Cl)ccc(C(O)(C(C)(C)C)C(C)(C)C)c2n1C [Example 106, 3-{4-Chloro-2-[(4-chloro-2-methoxy-6-methylphenyl)amino]-1-methyl-1H-benzimidazol-7-yl}-2,2,4,4-tetramethylpentan-3-ol]
218 to 219 | COc1cc(Cl)cc(C)c1Nc1nc2c(Cl)ccc(C(O)(C(C)C)C(C)C)c2n1C [Example 107, 3-{4-Chloro-2-[(4-chloro-2-methoxy-6-methylphenyl)amino]-1-methyl-1H-benzimidazol-7-yl}-2,4-dimethylpentan-3-ol]
166 to 168 | COc1cc(Cl)cc(C)c1Nc1nc2c(Cl)ccc(C(=C(C)C)C(C)C)c2n1C [Example 108, 4-Chloro-N-(4-chloro-2-methoxy-6-methylphenyl)-7-(1-isopropyl-2-methylprop-1-en-1-yl)-1-methyl-1H-benzimidazol-2-amine]
166 to 168 | C/C=C(/CC)c1ccc(Cl)c2nc(Nc3c(C)cc(Cl)cc3OC)n(C)c12 [Example 109, 4-Chloro-N-(4-chloro-2-methoxy-6-methylphenyl)-7-[(1Z)-1-ethylprop-1-en-1-yl]-1-methyl-1H-benzimidazol-2-amine]
178 to 180 | CCCC(CCC)c1ccc(Cl)c2nc(Nc3cc(C(F)(F)F)ccc3OC)n(C)c12 [Example 112, 4-Chloro-N-[2-methoxy-5-(trifluoromethyl)phenyl]-1-methyl-7-(1-propylbutyl)-1H-benzimidazol-2-amine]
206 to 208 | CCCC(CCC)c1ccc(Cl)c2nc(Nc3cc(C(F)(F)F)c(Cl)cc3Cl)n(C)c12 [Example 113, 4-Chloro-N-[2,4-dichloro-5-(trifluoromethyl)phenyl]-1-methyl-7-(1-propylbutyl)-1H-benzimidazol-2-amine]
230 to 232 | CCCC(CCC)c1ccc(Cl)c2nc(Nc3c(C)cc(Cl)cc3C)n(C)c12 [Example 114, 4-Chloro-N-(4-chloro-2,6-dimethylphenyl)-1-methyl-7-(1-propylbutyl)-1H-benzimidazol-2-amine]
234 to 236 | CCCC(CCC)c1ccc(Cl)c2nc(Nc3c(C)cc(Br)cc3C)n(C)c12 [Example 115, N-(4-Bromo-2,6-dimethylphenyl)-4-chloro-1-methyl-7-(1-propylbutyl)-1H-benzimidazol-2-amine]
237 to 239 | CCCC(CCC)c1ccc(Cl)c2nc(Nc3c[nH]c(=O)cc3C)n(C)c12 [Example 116, 5-{[4-Chloro-1-methyl-7-(1-propylbutyl)-1H-benzimidazol-2-yl]amino}-4-methylpyridin-2(1H)-one]
236 to 238 | CCCC(CCC)c1ccc(Cl)c2nc(Nc3cccc4c3CCCC4)n(C)c12 [Example 117, 4-Chloro-1-methyl-7-(1-propylbutyl)-N-(5,6,7,8-tetrahydronaphthalen-1-yl)-1H-benzimidazol-2-amine]
276 to 278 | CCC(CC)c1cc(Br)cc2nc(Nc3c(C)cc(Cl)cc3OC)n(C)c12 [Example 121, 5-Bromo-N-(4-chloro-2-methoxy-6-methylphenyl)-7-(1-ethylpropyl)-1-methyl-1H-benzimidazol-2-amine]
197 to 199 | CCCC(CCC)c1ccc(Cl)c2nc(Nc3cc(C(F)(F)F)c(O)cc3Cl)n(C)c12 [Example 122, 5-Chloro-4-{[4-chloro-1-methyl-7-(1-propylbutyl)-1H-benzimidazol-2-yl]amino}-2-(trifluoromethyl)phenol]
196 to 198 | CCCC(CCC)c1ccc(Cl)c2nc(Nc3cc(C(F)(F)F)c(OC)cc3OC)n(C)c12 [Example 123, 4-Chloro-N-[2,4-dimethoxy-5-(trifluoromethyl)phenyl]-1-methyl-7-(1-propylbutyl)-1H-benzimidazol-2-amine]
165 to 167 | CCCC(CCC)c1ccc(Cl)c2nc(Oc3c(C)cc(C)cc3C)n(C)c12 [Example 124, 4-Chloro-2-(mesityloxy)-1-methyl-7-(1-propylbutyl)-1H-benzimidazole]
